These results are taken from patent publication US11099176B2 (priority 2015, dated 2021).

pKd: −log10 of the molar value. Where two headings read alike, the source gives them in different places.

Assay [1] deals with Marinobacter sp. msLacBP6 variant 187C, D220E, SEQ ID NO: 56, Acrylodan conjugate. Nature of the assay: Fluorescence titration of conjugate (affinity tuning). In kind it is binding. Conditions: λ1 483, λ2 510 nm.
In assay [2] the target is T1, Polymorphum gilvum pgLacBP10, YP_004304976.1, SEQ ID NO: 10 (expressed form SEQ ID NO: 24) (Polymorphum gilvum, UniProt F2IY60).
T1 sequence (F2IY60 with tags, fused parts or gaps): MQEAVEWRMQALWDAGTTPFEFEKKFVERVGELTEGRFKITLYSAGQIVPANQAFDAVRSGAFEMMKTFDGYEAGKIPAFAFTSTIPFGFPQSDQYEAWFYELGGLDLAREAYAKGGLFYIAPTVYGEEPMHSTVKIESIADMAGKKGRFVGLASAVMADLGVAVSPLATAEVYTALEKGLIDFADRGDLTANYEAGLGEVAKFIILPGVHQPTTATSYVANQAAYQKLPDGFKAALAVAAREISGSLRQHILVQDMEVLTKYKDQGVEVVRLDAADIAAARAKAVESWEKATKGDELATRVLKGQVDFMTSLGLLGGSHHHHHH
The assay can be described thus: Lactate binding by thermal stability shift. The arrangement: key to appKd (lactate) / trueKd (lactate): nb: no binding. From the text: These experiments comprise four successive steps: • 1. Synthetic gene construction. The amino acid sequence of the homology leads are back translated into DNA sequences. These are optimized for directing heterologous cytoplasmic expression of the protein homologues in E. coli, using either the OrfOpt or OrfMorph programs. These programs predict mRNA sequences that direct high-level protein expression in E. coli. The predicted gene sequences are assembled de novo from synthetic oligonucleotides. • 2. Heterologous protein expression of the homologues in E. coli. Plasmids carrying the synthetic expression constructs (see above) were transformed into KRX competent cells (Promega). Protein production was induced in bacterial cultures of these cultures. • 3. Purification of successfully expressed protein using immobilized metal affinity chromatography. • 4.
The thermal stability of purified LacBP candidate proteins was determined by measuring the temperature-dependence of the fluorescence signal of an extrinsically added dye, SYPRO, using a Roche LightCycler (Layton and Hellinga, 2010, Biochemistry, 49, 10831-41). The total fluorescence intensity, S, is given by S=βFfF+βUfU 11 where fF and fU are the fractions of protein in the folded and unfolded states, respectively, and βF and βUthe fluorescence baselines of these two states. To get the fractions of the two states, we have
To obtain the temperature dependence of the binding reaction, the Kd values of all the individually determined isotherms were fit the Gibbs-Hemholtz equation (Layton and Hellinga, 2010, Biochemistry, 49, 10831-41): […]

In assay [3] the target is T2, Flexistipes sinusarabici fsLacBP13 variant W188C, SEQ ID NO: 47, Badan conjugate (Flexistipes sinusarabici, UniProt F8E724, W211C).
T2 construct: Badan on Cys188
Nature of the assay: Fluorescence titration of conjugate. In kind it is binding.

Assay [4] has as its target Marinobacter sp. msLacBP6 variant 187C, L70I, SEQ ID NO: 52, Acrylodan conjugate. The assay can be described thus: Fluorescence titration of conjugate (affinity tuning). Conditions: λ1 452, λ2 582 nm. In kind it is binding.
Setting [5] is: Roche LightCycler, SYPRO Orange.

T2 sequence (F8E724 entry or part of it W211C): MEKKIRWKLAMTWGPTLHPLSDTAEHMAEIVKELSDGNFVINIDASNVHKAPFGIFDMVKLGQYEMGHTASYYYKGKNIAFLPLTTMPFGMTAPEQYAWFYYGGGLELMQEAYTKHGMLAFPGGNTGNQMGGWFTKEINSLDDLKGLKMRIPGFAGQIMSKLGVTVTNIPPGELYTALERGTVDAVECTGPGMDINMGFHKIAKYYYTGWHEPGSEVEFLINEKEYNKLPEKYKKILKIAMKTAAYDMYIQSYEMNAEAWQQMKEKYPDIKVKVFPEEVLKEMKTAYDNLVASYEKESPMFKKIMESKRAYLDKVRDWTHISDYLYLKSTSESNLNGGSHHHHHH

On to `C[C@H](O)C(=O)O` [lactate], for which the pKd in assay [1] (read-out: appKd (lactate)) is 2.29; in assay [1] (read-out: trueKd (lactate)), 2.40; in assay [3], below 1.00; in assay [3] (read-out: trueKd (lactate), λ1 483, λ2 466 nm), below 1.00; in assay [4] (read-out: appKd (lactate)), 3.40; in assay [4] (read-out: trueKd (lactate)), 3.52. For the same compound, in assay [2] (setting [5]), the “appKd (lactate)” value is given as “nb^f”. In addition, the “trueKd (lactate)” value in assay [2] (setting [5]) is on record as “nb^f”. Also, the “Lactate Binding” value in assay [2] (thermostability vs ligand concentration, fluorescence response of labeled conjugate) is given as “weak^f,g”.
